Experimental data published in patent US12076305B2, “Compositions comprising a conjugate of quinic acid with caffeic acid, cosmetic and therapeutic uses” (CALSCIENCE INTERNATIONAL LTD, priority 2013, dated 2024).

What was measured:
p65 = test: Western blot of LNCaP cell extracts probed for p65; assay type: cell-based; conditions: LNCaP cells; 24 hours; 0.1, 1, 3, 10, 30, 100 μM
Experimental: (§1) Lanes 1 and 2 of the Western blot show the expression levels Hela control lysates comprising TNF-alpha (TNFα), in stimulated and unstimulated conditions. Lanes 3 and 4 show the results of LNCaP cell extracts, in stimulated and unstimulated conditions. In this case, the vehicle used is ethanol. Lanes 5 to 10 show the results of LNCaP cell extracts incubated for 24 hours in 0.1, 1, 3, 10, 30, 100 μM of 1,5-DCQA, respectively. Tubulin (50kD) was used as a loading control.

XRCC5 = test: Taqman Real Time-PCR expression of XRCC5 in HFFs with/without H2O2 stress; assay type: cell-based, Human; conditions: for ddct (−1.292) (XRCC5) / Relative Expression of XRCC5 / dCt (XRCC5) / XRCC5 (Ct): 1/1000 dilution; for dCt (XRCC5): vs HPRT
Experimental: (§2) The following results shown in FIGS. 2 to 7 relate to the analysis of Senescence tests on compound 2066 (1,5-dicaffeoylquinic acid or 1,5-DCQA). The experiments were conducted using Human Foreskin Fibroblasts (HFFs).
(§3) In the following experiments, HFFs were challenged for a period of two hours with 150 μM hydrogen peroxide (H2O2), to stimulate premature senescence in the presence and absence of 1,5-Dicaffeoylquinic acid (1/1000 dilution), and subsequently assayed by Taqman Real Time-PCR for the expression of key senescence associated genes.
XRCC5 is a double strand break repair protein.
(§4) The results shown in Table 2 and FIGS. 2 to 7 were generated using the polymerase chain reaction (PCR), wherein the dCt and ddCT values are results used in statistical analysis. The abbreviation dCt relates to “delta cycle threshold” and the abbreviation ddCt relates to “delta delta cycle threshold”. In these experiments, HPRT (hypoxanthine phosphoribosyltransferase, a protein from the HPRT-1 gene) was used as a control.

Sirtuin 2 (SIRT2) = test: Taqman Real Time-PCR expression of Sirtuin 2 in HFFs with/without H2O2 stress; assay type: cell-based, Human; conditions: for ddct (−0.016) (SIRT2) / Relative Expression of SIRT2 / dCt (SIRT2) / SIRT2 (Ct): 1/1000 dilution; for dCt (SIRT2): vs HPRT
Experimental: as §2, §3
(§5) These genes are involved in cell cycle regulation and mitochondrial stress responses. Challenge with a near lethal level of oxidant stress typically induces an increase in SIRT2 and decrease in SIRT3 expression. […] This is indicative of each having a potential for stimulating cell proliferation in the absence of oxidant challenge.
as §4

[1] = test system: Human Foreskin Fibroblasts (HFFs); test: WST-1 Cell Proliferation Assay in HFFs; assay type: cell-based; conditions: 1/1000 and 2/1000 dilutions
Text: The WST-1 Cell Proliferation Assay provides a sensitive and accurate assay for cell proliferation and cytotoxicity (cell viability). The WST assay is based on the cleavage of the tetrazolium salt WST-1 to formazan by cellular mitochondrial dehydrogenases. Expansion in the number of viable cells results in an increase in the overall activity of the mitochondrial dehydrogenases in the sample. The augmentation in enzyme activity results in an increase in the amount of formazan dye formed. The formazan dye produced by viable cells was quantified by a multi-well spectrophotometer by measuring the absorbance of the dye solution at 440 nm. The compound provided was tested in the WST assay over a range of dilutions. […] The results of the assay show the standard deviation (SD) for 1,5-DCQA (2066) and the control, and the mean values for 1,5-DCQA (2066) and the control.

p16 = test: Taqman Real Time-PCR expression of p16 in HFFs with/without H2O2 stress-induced premature senescence; assay type: cell-based, Human; conditions: for ddct (1.275) (P16) / Relative Expression of P16 / dCt (P16) / P16 (Ct): 1/1000 dilution; for dCt (P16): vs HPRT
Experimental: as §2, §3, §4

Sirtuin 3 (SIRT3) = test: Taqman Real Time-PCR expression of Sirtuin 3 in HFFs with/without H2O2 stress; assay type: cell-based, Human; conditions: for ddct (−2.079) (SIRT3) / Relative Expression of SIRT3 / dCt (SIRT3) / SIRT3 (Ct): 1/1000 dilution; for dCt (SIRT3): vs HPRT
Experimental: as §2, §3, §5, §4

hPOT1 = test: Taqman Real Time-PCR expression of hPOT1 in HFFs with/without H2O2 stress; assay type: cell-based, Human; conditions: for ddct (−1.835) (hPOT1) / Relative Expression of hPOT1 / dct (hPOT1) / HPOT1 (Ct): 1/1000 dilution; for dct (hPOT1): vs HPRT
Experimental: as §2, §3
These findings are supported by an analysis of the Protection of Telomeres gene (POT 1).
as §4

MMP-9 = test: Western blot of LNCaP cell extracts probed for MMP-9; assay type: cell-based; conditions: LNCaP cells; 24 hours; at 0.1 μM to 100 μM
Experimental: as §1

Pp65 (ser 536) = test: Western blot of LNCaP cell extracts probed for Pp65 (ser 536); assay type: cell-based; conditions: LNCaP cells; 24 hours; 0.1, 1, 3, 10, 30, 100 μM
Experimental: as §1

p21 = test: Taqman Real Time-PCR expression of p21 in HFFs with/without H2O2 stress; assay type: cell-based, Human; conditions: for ddct (−3.761) (P21) / Relative Expression of P21 / dCt (P21) / P21 (Ct): 1/1000 dilution; for dCt (P21): vs HPRT
Experimental: as §2, §3, §4

[2] = & stress (150 μM H2O2, two hours)
[3] = HFFs, & stress (150 μM H2O2, two hours)

Structure (SMILES): O=C(/C=C/c1ccc(O)c(O)c1)O[C@@H]1C[C@](OC(=O)/C=C/c2ccc(O)c(O)c2)(C(=O)O)C[C@@H](O)[C@H]1O [1,5-DCQA, 1,5-dicaffeoylquinic acid]
- inhibition of the expression of p65 (p65): does not inhibit
- induction of DNA breaks (from XRCC5 expression) (XRCC5): does not induce DNA breaks
- ddct (−1.292) (XRCC5) (XRCC5; & stress (150 μM H2O2)): −0.141
- Relative Expression of XRCC5 (XRCC5; & stress (150 μM H2O2), media = 1.000, stress alone 2.237): 1.103
- dCt (XRCC5) (XRCC5; & stress (150 μM H2O2)): −1.433
- XRCC5 (Ct) (XRCC5; [2]): 25.9
- XRCC5 (Ct) (XRCC5; no stress): 25.48
- ddct (−1.292) (XRCC5) (XRCC5; no stress): 0.444
- Relative Expression of XRCC5 (XRCC5; no stress, media = 1.000): 0.735
- dCt (XRCC5) (XRCC5; no stress): −0.848
- expression of XRCC5 in comparison with the control data set (XRCC5; with and without 150 μM H2O2): substantially unaltered
- ddct (−0.016) (SIRT2) (Sirtuin 2 (SIRT2); HFFs, & stress (150 μM H2O2)): 0.371
- Relative Expression of SIRT2 (Sirtuin 2 (SIRT2); HFFs, & stress (150 μM H2O2), media = 1.000, stress alone 0.762): 0.773
- dCt (SIRT2) (Sirtuin 2 (SIRT2); HFFs, & stress (150 μM H2O2)): 0.387
- SIRT2 (Ct) (Sirtuin 2 (SIRT2); [3]): 27.72
- SIRT2 (Ct) (Sirtuin 2 (SIRT2); HFFs, no stress): 27.16
- ddct (−0.016) (SIRT2) (Sirtuin 2 (SIRT2); HFFs, no stress): 0.817
- Relative Expression of SIRT2 (Sirtuin 2 (SIRT2); HFFs, no stress, media = 1.000): 0.568
- dCt (SIRT2) (Sirtuin 2 (SIRT2); HFFs, no stress): 0.833
- change in SIRT2 expression (Sirtuin 2 (SIRT2); HFFs, without stress): significant decrease
- down regulation of SIRT2 expression (Sirtuin 2 (SIRT2); normal fibroblasts): approximately 52%
- cell viability (WST-1) [1]: beneficial to cell viability
- protection of p16 expression from oxidant challenge (p16; 150 μM H2O2): excellent protection from oxidant challenge
- ddct (1.275) (P16) (p16; & stress (150 μM H2O2)): −0.519
- Relative Expression of P16 (p16; & stress (150 μM H2O2), media = 1.000, stress alone 3.151): 1.433
- dCt (P16) (p16; & stress (150 μM H2O2)): 0.756
- P16 (Ct) (p16; [2]): 28.09
- P16 (Ct) (p16; no stress): 27.66
- ddct (1.275) (P16) (p16; no stress): 0.050
- Relative Expression of P16 (p16; no stress, media = 1.000): 0.966
- dCt (P16) (p16; no stress): 1.325
- effect on p16 expression in untreated cells (p16; no H2O2): no stress effect
- ddct (−2.079) (SIRT3) (Sirtuin 3 (SIRT3); HFFs, & stress (150 μM H2O2)): −0.120
- Relative Expression of SIRT3 (Sirtuin 3 (SIRT3); HFFs, & stress (150 μM H2O2), media = 1.000, stress alone 0.794): 1.086
- dCt (SIRT3) (Sirtuin 3 (SIRT3); HFFs, & stress (150 μM H2O2)): 1.959
- SIRT3 (Ct) (Sirtuin 3 (SIRT3); [3]): 29.3
- SIRT3 (Ct) (Sirtuin 3 (SIRT3); HFFs, no stress): 28.56
- ddct (−2.079) (SIRT3) (Sirtuin 3 (SIRT3); HFFs, no stress): 0.148
- Relative Expression of SIRT3 (Sirtuin 3 (SIRT3); HFFs, no stress, media = 1.000): 0.903
- dCt (SIRT3) (Sirtuin 3 (SIRT3); HFFs, no stress): 2.227
- change in SIRT3 expression (Sirtuin 3 (SIRT3); HFFs, following oxidant challenge): increase
- up regulation of SIRT3 expression (Sirtuin 3 (SIRT3); senescent fibroblasts): approximately 36%
- effect on hPOT1 expression against oxidant challenge (hPOT1; 150 μM H2O2): protective effect
- ddct (−1.835) (hPOT1) (hPOT1; & stress (150 μM H2O2)): 0.405
- Relative Expression of hPOT1 (hPOT1; & stress (150 μM H2O2), media = 1.000, stress alone 1.625): 0.755
- dct (hPOT1) (hPOT1; & stress (150 μM H2O2)): 2.240
- HPOT1 (Ct) (hPOT1; [2]): 29.5758
- HPOT1 (Ct) (hPOT1; no stress): 29.47
- ddct (−1.835) (hPOT1) (hPOT1; no stress): 1.306
- Relative Expression of hPOT1 (hPOT1; no stress, media = 1.000): 0.404
- dct (hPOT1) (hPOT1; no stress): 3.141
- inhibition of MMP-9 (MMP-9): clearly demonstrated
- inhibition of the phosphorylation of p65 (Pp65 (ser 536)): does inhibit
- p21 expression levels following stress (p21; 150 μM H2O2): substantially unchanged
- ddct (−3.761) (P21) (p21; & stress (150 μM H2O2)): −2.263
- Relative Expression of P21 (p21; & stress (150 μM H2O2), media = 1.000, stress alone 4.519): 4.801
- dCt (P21) (p21; & stress (150 μM H2O2)): −6.024
- P21 (Ct) (p21; [2]): 21.31
- P21 (Ct) (p21; no stress): 22.4
- ddct (−3.761) (P21) (p21; no stress): −0.167
- Relative Expression of P21 (p21; no stress, media = 1.000): 1.122
- dCt (P21) (p21; no stress): −3.928
